Experimental data: patent publication US8017398B2, “Method for assaying protein-protein interaction” (Life Technologies Corporation, priority 2003, dated 2011)

Legend:
[1] = biological target: T1, ADRB2 (Homo sapiens, UniProt P07550); assay: chemiluminescence β-galactosidase reporter assay, ADRB2-tTA + ARRB2-TEV-NIa protease, clone 41 cells; type: cell-based; conditions: ADRB2-tTA low efficiency cleavage site
T1 construct: to produce three, full length constructs encoding fusion proteins; expressed in transfected cells; host or cells: HEK-293T and clone 41 (HEK-293T derivative)
T1 sequence (P07550 whole entry, the tested form may be a part): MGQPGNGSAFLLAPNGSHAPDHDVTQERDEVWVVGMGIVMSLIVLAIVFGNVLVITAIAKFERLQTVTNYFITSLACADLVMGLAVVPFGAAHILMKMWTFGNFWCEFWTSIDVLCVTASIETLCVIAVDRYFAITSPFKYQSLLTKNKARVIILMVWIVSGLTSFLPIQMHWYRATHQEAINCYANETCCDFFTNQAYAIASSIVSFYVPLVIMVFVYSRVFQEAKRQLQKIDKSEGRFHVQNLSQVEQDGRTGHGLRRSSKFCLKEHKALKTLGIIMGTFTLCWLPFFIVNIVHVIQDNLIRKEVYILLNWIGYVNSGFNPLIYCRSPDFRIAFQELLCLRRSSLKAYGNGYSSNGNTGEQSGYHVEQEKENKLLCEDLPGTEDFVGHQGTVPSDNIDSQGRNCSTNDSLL

[2] = biological target: T2, human Type I Interferon Receptor (Homo sapiens, UniProt P17181+P48551); assay: IFNAR1-GAL4-NF-κB + IFNAR2.2-TEV luciferase reporter assay, CHO-K1 cells; type: cell-based, hamster; conditions: control pcDNA3 plasmid
T2 construct: expressed in transfected cells; host or cells: CHO-K1
T2 sequence (P17181 28-557): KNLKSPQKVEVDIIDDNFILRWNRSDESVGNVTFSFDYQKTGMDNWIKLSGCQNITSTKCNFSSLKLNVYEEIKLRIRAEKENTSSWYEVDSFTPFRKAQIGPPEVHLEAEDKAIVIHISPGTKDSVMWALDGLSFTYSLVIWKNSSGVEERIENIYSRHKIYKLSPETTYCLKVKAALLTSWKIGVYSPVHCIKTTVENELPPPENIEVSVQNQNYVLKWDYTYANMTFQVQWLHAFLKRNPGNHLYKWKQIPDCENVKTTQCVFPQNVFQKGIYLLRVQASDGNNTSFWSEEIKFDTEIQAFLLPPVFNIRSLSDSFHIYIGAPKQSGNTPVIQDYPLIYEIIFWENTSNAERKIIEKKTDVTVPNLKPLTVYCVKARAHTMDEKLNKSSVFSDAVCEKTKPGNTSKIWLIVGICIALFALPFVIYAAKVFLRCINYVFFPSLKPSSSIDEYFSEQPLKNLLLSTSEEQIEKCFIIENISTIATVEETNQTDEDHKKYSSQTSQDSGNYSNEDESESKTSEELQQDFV
T2 sequence (P48551 27-515): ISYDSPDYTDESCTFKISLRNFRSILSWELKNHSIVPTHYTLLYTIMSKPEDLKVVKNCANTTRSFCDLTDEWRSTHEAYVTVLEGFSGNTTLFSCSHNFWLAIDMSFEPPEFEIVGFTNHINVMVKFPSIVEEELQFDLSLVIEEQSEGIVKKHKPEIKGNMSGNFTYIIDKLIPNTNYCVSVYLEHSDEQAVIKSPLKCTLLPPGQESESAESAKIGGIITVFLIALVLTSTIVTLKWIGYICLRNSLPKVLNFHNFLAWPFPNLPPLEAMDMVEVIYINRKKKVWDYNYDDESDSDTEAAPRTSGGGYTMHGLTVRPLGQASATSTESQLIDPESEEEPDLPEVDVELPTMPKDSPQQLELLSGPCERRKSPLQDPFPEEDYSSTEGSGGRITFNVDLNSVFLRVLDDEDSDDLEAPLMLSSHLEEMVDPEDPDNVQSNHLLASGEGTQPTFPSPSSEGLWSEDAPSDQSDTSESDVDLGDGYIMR

Compound | induction of reporter gene activity by agonist of another GPCR (P2Y1, P2Y2) [1] | effect on reporter gene activity in cells transfected with the reporter and control plasmids [2]
Nc1ncnc2c1ncn2[C@@H]1O[C@H](COP(=O)(O)OP(=O)(O)OP(=O)(O)O)[C@@H](O)[C@H]1O [ATP] | Stimulation of another GPCR pathway was irrelevant | 
IFN-α |  | no effect
